Measurements as given in patent publication US20240269106A1, “SMALL MOLECULE MODULATOR TARGETING A RARE HISTONE MODIFICATION REGULATING ADIPOGENESIS AND PHARMACEUTICAL FORMULATION THEREOF” (COUNCIL OF SCIENTIFIC AND INDUSTRIAL RESEARCH AN INDIAN …, priority 2021, published 2024).
Read-outs that look alike come from different tables or passages of the source.

What was measured:
[1] = target: T1, full length p300 (Homo sapiens, UniProt Q09472); experiment: In vitro p300 butyrylation assay (immunoblot); assay type: biochemical; settings: 25 μM
T1 construct: Purified full length p300 protein was used for in vitro acetylation/butyrylation assay
Procedure: Purified full length p300 protein was used for in vitro acetylation/butyrylation assay in presence/absence of different compounds. Acylation reactions were performed in reaction buffer (25 mM Tris-HCl PH 7.5, 100 mM NaCl, 0.1 mM EDTA, 1 mM DTT, 10% Glycerol, 1×PIC) with 100 ng/ml TSA, and 50 μM Butyryl-CoA/Acetyl COA. Xenopus histone H3 (500 ng) was used as the substrate and p300 (10,000 cpm activity) was used as the enzyme. Reactions were incubated in presence or absence of small molecule modulators (including compound of Formula I) for 10 minutes at 30° C., followed by initiation of the acetylation/butyrylation reaction by the addition of acetyl/butyryl CoA. After a further 10 minutes, reactions were stopped by addition of Laemmli buffer and samples were used for immunoblotting.
Immunoblotting with antibodies against acetylated H3K18, acetylated H3K9 and pan-butyryl lysine was performed to check for the relative inhibition of acetyl transferase and butyryl transferase activities of full length p300 by garcinol, isogarcinol and its different derivatives including compound of Formula I at different concentrations. FIG. 2i depicts the effect of garcinol, isogarcinol and two of its derivatives LTK-13 and LTK-14 on p300 catalysed acetyltransferase activity. […] FIG. 2ii depicts the effect of LTK-14 on acetylation and butyrylation catalysed by p300. Lane 1, enzyme alone; Lane 2-4, enzyme+LTK-14 at concentrations 500 nM, 2 μM and 10 μM, respectively. LTK-14 could inhibit acetylation at 10 μM concentration while butyrylation was inhibited at 2 μM concentration. FIG. 2iii depicts the effect of compound x on acetylation and butyrylation catalysed by p300. Lane 1, enzyme alone; Lane 2, enzyme+DMSO; Lane 3-6, enzyme+compound x at concentrations 10, 15, 20 and 25 μM, respectively.

[2] = tested on: 3T3L1 cells; experiment: Adipogenesis of 3T3L1 cell line, Oil Red-O staining; assay type: cell-based
Procedure: The preadipocyte cell line 3T3L1 was seeded in complete DMEM (supplemented with 10% FBS). Once the cells reached almost full confluent state, they were treated with differentiation media (2 μg/mL Insulin, 0.5 mM IBMX and 1 μM Dexamethasone) for 2 days. After the differentiation induction, the cells were kept in maintenance media (2 μg/mL Insulin) for another 4-6 days with media change given every 2 days. The completion of adipogenesis was confirmed by the observation of lipid droplet accumulation in most of the cells. On the 6th day post induction of differentiation the cells were fixed with 3.7% formaldehyde solution followed by staining with Oil Red-O dye (prepared in 60% isopropanol) for 1 hour at room temperature. The incorporated dye was extracted using isopropanol and absorbance values were determined spectrophotometrically at 510 nm to estimate total amount of lipid accumulation under different experimental conditions.

[3] = Pharmacokinetic study, oral, serum LC-MS; assay type: in vivo, SD rats; settings: for Cl/F_obs / Vz/F_obs / AUC(0-t) / Cmax / Tmax / AUC(0-inf) / MRT inf / half-life: free drug coarse suspension; for AUC(0-t) / Cmax / Tmax / AUC(0-inf) / MRT inf / half-life: Sprague-Dawley (SD); for AUC(0-inf): read-out: AUC 0-inf_obs; for MRT inf: read-out: MRT 0-inf_obs; for half-life: read-out: t½ (converted)
Procedure: Healthy male SD rats (weighing 200-230 gm) were used for the pharmacokinetic study. The animals were fasted overnight and had free access to water. The animals were divided into six groups with each group having 6 male SD rats (6×6=36) and were orally administered with optimized compound X nano lipid carrier formulation and coarse suspension (free drug) of compound X. All the formulations were administered orally with the help of rat oral feeding tube. The group comprises as follows, GROUP 1: Only vehicle sodium suspension as control/blank. GROUP 2: Compound X optimized NLC formulation by oral delivery (25 mg/kg). GROUP 3: Compound X free drug as coarse suspension by oral delivery (25 mg/kg). GROUP 4: Compound X free drug as coarse suspension by oral delivery (50 mg/kg). GROUP 5: Compound X free drug as coarse suspension by oral delivery (100 mg/kg). GROUP 6: Compound X free drug as coarse suspension by oral delivery (200 mg/kg). Blood samples were withdrawn from retro-orbital venous plexus puncture at time intervals of 0.25, 0.5, 1, 2, 4, 8, 12, 24 and 48 hours. The blood samples were allowed to clot and centrifuged for 15 min at 4500 rpm. The serum was separated and transferred into clean micro centrifuge tubes and stored at −80° C. until further analysis. 50 μl of rat serum was taken from samples and added to extraction solvent 2.5% IPA in n-Hexane (2 mL) containing internal standard (SCTK-14 of 2.5 ng) than Vortexed for 10 minutes, the samples were centrifuged at 4500 rpm and 4° C. for 15 minutes. After centrifugation, samples were stored at −80° C. for 30 minutes, and the supernatant organic layer was transferred and evaporated to dryness in a thermostatically controlled water bath maintained at 30° C. under steam of nitrogen for 30 minutes. After drying the residue was reconstituted by adding 200 microlitres of acetonitrile into pre-labelled vials and vortexed for 20 seconds, and then the samples were injected into the LC-MS system for analysis.
The pharmacokinetic parameters of compound X were calculated by non-compartmental estimations using PK solver 2.0 software.

[4] = tested on: genes associated with adipogenesis; experiment: RT-PCR of adipogenesis related genes in 3T3L1; assay type: cell-based; settings: 3T3L1, RT-PCR
Procedure: Total RNA was isolated from the treated 3T3L1 cells by phenol-chloroform method. The isolated RNA samples were treated with 2 units/μL DNase I to remove any residual DNA followed by overnight ethanol precipitation at −80° C. RNA integrity was checked in 1% agarose gel. 2 μg RNA was used for cDNA synthesis using oligo dT primers. RT-PCR was done using primers of adipogenesis related genes followed by detection with SYBR Green.
RT-PCR analysis was performed to show downregulation of genes associated with adipogenesis by compound of Formula I (FIG. 5). Error bars denote mean+/−SD of three biological replicates, one-way ANOVA with Dunnett's multiple comparison; * P<0.05, ** P<0.01, *** P<0.001, ns: not significant.

[5] = male, rat, serum, 25 mg/kg oral
[6] = male, rat, serum, 50 mg/kg oral
[7] = male, rat, serum, 100 mg/kg oral
[8] = male, rat, serum, 200 mg/kg oral

T1 sequence (Q09472 whole entry, species assumed): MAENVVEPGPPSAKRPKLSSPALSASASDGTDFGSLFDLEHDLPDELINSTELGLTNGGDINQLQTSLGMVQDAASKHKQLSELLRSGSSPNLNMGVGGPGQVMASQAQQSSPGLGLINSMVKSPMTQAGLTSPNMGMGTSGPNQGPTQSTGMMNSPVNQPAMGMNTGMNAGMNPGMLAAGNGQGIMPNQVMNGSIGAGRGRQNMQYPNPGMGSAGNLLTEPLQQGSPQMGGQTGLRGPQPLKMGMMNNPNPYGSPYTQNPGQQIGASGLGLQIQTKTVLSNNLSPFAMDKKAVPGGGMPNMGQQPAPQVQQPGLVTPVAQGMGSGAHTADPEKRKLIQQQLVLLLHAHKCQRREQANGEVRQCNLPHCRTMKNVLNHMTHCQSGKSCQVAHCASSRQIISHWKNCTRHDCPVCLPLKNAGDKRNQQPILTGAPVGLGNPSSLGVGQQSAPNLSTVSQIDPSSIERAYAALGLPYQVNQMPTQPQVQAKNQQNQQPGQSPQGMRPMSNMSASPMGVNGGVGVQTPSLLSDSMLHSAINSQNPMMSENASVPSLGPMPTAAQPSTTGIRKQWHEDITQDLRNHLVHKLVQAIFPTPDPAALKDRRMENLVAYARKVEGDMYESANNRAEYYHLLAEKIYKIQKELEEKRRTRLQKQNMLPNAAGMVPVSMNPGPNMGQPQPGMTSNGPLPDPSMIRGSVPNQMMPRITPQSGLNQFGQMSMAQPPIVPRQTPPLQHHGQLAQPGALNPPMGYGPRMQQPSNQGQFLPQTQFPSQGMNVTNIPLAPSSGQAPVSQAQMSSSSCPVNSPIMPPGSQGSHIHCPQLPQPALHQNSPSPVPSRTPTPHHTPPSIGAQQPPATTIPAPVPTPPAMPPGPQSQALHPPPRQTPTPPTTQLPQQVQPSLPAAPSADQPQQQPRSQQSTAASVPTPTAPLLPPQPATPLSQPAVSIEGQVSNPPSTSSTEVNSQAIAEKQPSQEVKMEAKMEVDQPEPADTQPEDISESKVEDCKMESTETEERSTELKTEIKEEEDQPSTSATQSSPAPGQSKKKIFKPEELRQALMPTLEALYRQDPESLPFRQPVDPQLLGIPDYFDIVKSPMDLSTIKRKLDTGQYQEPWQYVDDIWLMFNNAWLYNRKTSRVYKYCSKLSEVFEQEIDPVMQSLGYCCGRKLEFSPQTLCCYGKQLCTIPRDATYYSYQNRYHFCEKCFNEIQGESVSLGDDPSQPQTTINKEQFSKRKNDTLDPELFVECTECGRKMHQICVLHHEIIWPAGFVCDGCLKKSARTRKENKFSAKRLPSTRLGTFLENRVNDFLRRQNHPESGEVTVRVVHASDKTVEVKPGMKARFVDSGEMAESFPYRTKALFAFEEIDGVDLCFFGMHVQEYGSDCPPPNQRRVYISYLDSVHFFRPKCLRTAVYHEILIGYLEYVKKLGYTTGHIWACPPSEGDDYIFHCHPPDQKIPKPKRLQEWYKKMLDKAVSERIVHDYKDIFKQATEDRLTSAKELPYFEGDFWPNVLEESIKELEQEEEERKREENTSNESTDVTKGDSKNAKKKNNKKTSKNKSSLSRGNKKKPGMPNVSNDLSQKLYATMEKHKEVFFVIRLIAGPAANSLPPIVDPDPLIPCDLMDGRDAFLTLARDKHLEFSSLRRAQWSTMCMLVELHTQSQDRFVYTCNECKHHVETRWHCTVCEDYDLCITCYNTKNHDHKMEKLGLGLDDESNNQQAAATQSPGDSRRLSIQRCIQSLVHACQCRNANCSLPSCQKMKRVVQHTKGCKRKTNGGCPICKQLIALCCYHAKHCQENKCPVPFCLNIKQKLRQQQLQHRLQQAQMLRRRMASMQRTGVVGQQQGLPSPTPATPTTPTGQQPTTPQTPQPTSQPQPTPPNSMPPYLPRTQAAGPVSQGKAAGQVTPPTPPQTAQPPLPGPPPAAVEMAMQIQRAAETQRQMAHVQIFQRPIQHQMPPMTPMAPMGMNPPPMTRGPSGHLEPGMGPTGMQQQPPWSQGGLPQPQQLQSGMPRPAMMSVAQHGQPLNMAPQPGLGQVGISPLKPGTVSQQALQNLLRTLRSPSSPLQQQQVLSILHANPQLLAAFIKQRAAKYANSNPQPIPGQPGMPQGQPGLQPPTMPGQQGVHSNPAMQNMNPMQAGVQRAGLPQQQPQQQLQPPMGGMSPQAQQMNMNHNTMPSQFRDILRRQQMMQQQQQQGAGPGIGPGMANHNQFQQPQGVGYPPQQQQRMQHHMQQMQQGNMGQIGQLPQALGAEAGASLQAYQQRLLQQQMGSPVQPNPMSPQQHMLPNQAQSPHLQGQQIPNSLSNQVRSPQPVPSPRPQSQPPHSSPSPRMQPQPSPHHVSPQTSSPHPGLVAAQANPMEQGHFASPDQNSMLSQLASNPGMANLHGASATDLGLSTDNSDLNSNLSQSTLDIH

In the case of `COc1ccc(C(=O)C2=C3OC(C)(C)[C@@H](CC=C(C)C)C[C@@]34C[C@@H](CC=C(C)C)C(C)(C)[C@@](CC=C(C)C)(C2=O)C4=O)cc1OC` [Compound X], the “effect on butyrylation catalysed by p300” value [1] is reported as “significant inhibitory effect”, the “adipogenesis, Oil-Red O staining” value [2] is reported as “inhibition of adipogenesis” and the “difference in AUC between doses” value ([3]; free compound X at 25, 50, 100 and 200 mg/kg, except at 200 mg/kg) is reported as “no appreciable difference in AUC”. The Cl/F_obs ([3]; 25 mg/kg oral) was 3.338 ± 0.33 mg)/(ng/ml)/h, the Vz/F_obs ([3]; 25 mg/kg oral) was 71.906 ± 29.05 (mg)/(ng/ml) and the Cl/F_obs ([3]; 50 mg/kg oral) was 8.071 ± 2.12 mg)/(ng/ml)/h. The Vz/F_obs ([3]; 50 mg/kg oral) was 193.686 ± 112.43 (mg)/(ng/ml), the Cl/F_obs ([3]; 100 mg/kg oral) was 18.233 ± 4.3 mg)/(ng/ml)/h and the Vz/F_obs ([3]; 100 mg/kg oral) was 346.653 ± 2.6193 (mg)/(ng/ml). The Cl/F_obs ([3]; 200 mg/kg oral) was 10.882 ± 4.58 mg)/(ng/ml)/h, the Vz/F_obs ([3]; 200 mg/kg oral) was 209.737 ± 91.22 (mg)/(ng/ml) and the AUC ([3]; male, SD, rat, serum, oral, free compound X, 200 mg/kg dose) was ~20 ng·h/mL. The AUC(0-t) [3, 5] was 6.56 ± 1.57 ng·h/mL, the Cmax [3, 5] was 0.853 ± 0.09 ng/mL and the Tmax [3, 5] was 4.67 ± 3.05 h. For the same compound, the AUC(0-inf) [3, 5] was 7.54 ± 0.8 ng·h/mL, the MRT inf [3, 5] was 22.2 ± 9.59 h and the half-life [3, 5] was 14.7 ± 5.07 h. For the same compound, the AUC(0-t) [3, 6] was 4.74 ± 0.1 ng·h/mL, the Cmax [3, 6] was 2.49 ± 0.14 ng/mL and the Tmax [3, 6] was 0.333 ± 0.14 h. It also gave an AUC(0-inf) [3, 6] of 6.49 ± 1.71 ng·h/mL, an MRT inf [3, 6] of 28.4 ± 22.8 h and a half-life [3, 6] of 18.6 ± 12.2 h. It also gave an AUC(0-t) [3, 7] of 5.29 ± 0.99 ng·h/mL, a Cmax [3, 7] of 0.343 ± 0.15 ng/mL and a Tmax [3, 7] of 0.667 ± 0.28 h. The AUC(0-inf) [3, 7] was 5.74 ± 1.6 ng·h/mL, the MRT inf [3, 7] was 21 ± 3.98 h and the half-life [3, 7] was 13.8 ± 3.74 h. The AUC(0-t) [3, 8] was 19.1 ± 7.84 ng·h/mL, the Cmax [3, 8] was 2.83 ± 2.16 ng/mL and the Tmax [3, 8] was 2.92 ± 4.4 h. The AUC(0-inf) [3, 8] was 20.6 ± 7.98 ng·h/mL, the MRT inf [3, 8] was 15.7 ± 2.87 h and the half-life [3, 8] was 13.4 ± 4.31 h. The “expression of genes associated with adipogenesis” value [4] was “downregulation”.
